Target: human FKBP12 (Homo sapiens, UniProt P62942)
Conditions: Measurement 3; first solutions of two or three samples, one of them 100 μM FKBP12, others HSA
Description: An apparatus for analyzing interactions in this example includes a column TSK super SW2000 for size exclusion chromatography (column size: 1.0 ID×10 mm, 1.0 ID×30 mm or 1.0 ID×100 mm, manufactured by Tosoh Corporation) for a separation channel 1. The apparatus for analyzing interactions also includes an auto injector HTC-PAL (manufactured by CTC Analytics AG) for a container section 3, and a LC pump (Agilent 1100, manufactured by Yokogawa) for an introduction device 4. The apparatus for analyzing interactions also includes an ion trap mass spectrometer LCQ deca XP (ThermoQuest) for a detection device 5.
The auto injector HTC-PAL (CTC Analytics AG) includes a sample loop of 5 μL or 10 μL, a syringe of 10 μL, and sample trays with a cooling unit. A first solution was introduced by 50 μL into a 2 mL screw vial with a conical insert of 100 μL inserted therein. A screw cap with a septum was put on the vial and the vial was placed in a 54 vial rack and the rack was set in one of the sample trays. A second solution was introduced by 40 μL into each well of a 384 well-microplate, and the microplate was covered with an aluminum seal and set in another sample tray. The sample trays were set at the temperature of 10 degrees C. […]

Chain of human FKBP12 (P62942 whole entry): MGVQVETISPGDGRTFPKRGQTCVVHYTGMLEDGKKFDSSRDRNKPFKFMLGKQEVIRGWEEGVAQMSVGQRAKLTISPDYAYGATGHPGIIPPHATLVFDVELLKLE

SMILES: CC[C@@H]1/C=C(\C)C[C@H](C)C[C@H](OC)[C@H]2O[C@@](O)(C(=O)C(=O)N3CCCC[C@H]3C(=O)O[C@H](/C(C)=C/[C@@H]3CC[C@@H](O)[C@H](OC)C3)[C@H](C)[C@@H](O)CC1=O)[C@H](C)C[C@@H]2OC [Ascomycin]
- interaction with FKBP12 (peaks in mass chromatogram of the compound): interaction between Ascomycin and FKBP12 is able to be detected
